Laboratory results taken from the NIST ThermoML archive (doi:10.1016/j.jct.2015.11.023).

Columns and labels:
[1] = for surface tension liquid-gas: Maximal bubble pressure; for mass density: 101.33 kPa, Liquid, Vibrating tube method
[2] = refractive index (Na D-line) (dimensionless); conditions: 101.33 kPa, Liquid, Standard Abbe refractometry

CCCC[n+]1ccccc1.N#C[N-]C#N [1-butylpyridinium dicyanamide]
Conditions | mass density, [1] [kg/m3] | refractive index, [2] | surface tension liquid-gas, [1] [mN/m]
303.15 K | 1065.76 | 1.5325 | 55.5
308.15 K | 1062.7 | 1.5309 | 55.2
313.15 K | 1059.66 | 1.5285 | 54.9
318.15 K | 1056.64 | 1.527 | 54.5
323.15 K | 1053.63 | 1.5253 | 54.2
328.15 K | 1050.63 | 1.5237 | 53.9
333.15 K | 1047.66 | 1.5217 | 53.6
338.15 K | 1044.69 | 1.5202 | 53.4

CCCCC[n+]1ccccc1.N#C[N-]C#N [1-pentylpyridinium dicyanamide]
Conditions | mass density, [1] [kg/m3] | refractive index, [2] | surface tension liquid-gas, [1] [mN/m]
303.15 K | 1050.05 | 1.5287 | 53
308.15 K | 1047.03 | 1.5272 | 52.7
313.15 K | 1044.03 | 1.5258 | 52.4
318.15 K | 1041.04 | 1.5243 | 52.1
323.15 K | 1038.07 | 1.523 | 51.7
328.15 K | 1035.11 | 1.5212 | 51.4
333.15 K | 1032.17 | 1.5194 | 51.2
338.15 K | 1029.24 | 1.5179 | 51

CCC[n+]1ccccc1.N#C[N-]C#N [1-propylpyridinium dicyanamide]
Conditions | mass density, [1] [kg/m3] | refractive index, [2] | surface tension liquid-gas, [1] [mN/m]
303.15 K | 1086.92 | 1.539 | 57.7
308.15 K | 1083.79 | 1.5374 | 57.4
313.15 K | 1080.69 | 1.5356 | 57
318.15 K | 1077.6 | 1.5342 | 56.7
323.15 K | 1074.52 | 1.5329 | 56.4
328.15 K | 1071.46 | 1.5312 | 56.1
333.15 K | 1068.42 | 1.5293 | 55.7
338.15 K | 1065.4 | 1.5276 | 55.4
